Test results taken from US6673781B1, “Tricyclic compounds having sPLA2-inhibitory activities” (Shionogi & Co., Ltd., priority 1999, dated 2004).

Columns and labels:
[1] = biological target: T1, recombinant human secretory phospholipase A2 (Homo sapiens, UniProt P14555); test: Inhibition test of human secretory phospholipase A2 (chromogenic assay, 96 well microtiterplate); format: biochemical; details: sPLA2 50 ng/well, 40° C., 30 minutes, OD 405 nm, substrate 1,2-bis(heptanoylthio)-1,2-dideoxy-sn-glycero-3-phospholylcholine
T1 sequence (P14555 21-144): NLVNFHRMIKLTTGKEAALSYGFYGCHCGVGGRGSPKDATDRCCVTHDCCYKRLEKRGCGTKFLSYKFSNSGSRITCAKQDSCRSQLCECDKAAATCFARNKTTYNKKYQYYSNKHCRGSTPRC
Text: Inhibition Test of Human Secretory Phospholipase A2 Analytical Experiment
In order to identify and evaluate an inhibitor of recombinant human secretory phospholipase A2, the following chromogenic assay is utilized. The assay herein has been applied for high volume screening wherein 96 well microtiterplate is used. A general explanation for such assay is described in “Analysis of Human Synovial Fluid Phospholipase A2 on Short Chain Phosphatidylcholine-Mixed Micelles: Development of a Spectrophotometric Assay Suitable for a Micortiterplate Reader” (Analytical Biochemistry, 204, pp 190-197, 1992 by Laure. J. Reynolds. Lori L. Hughes and Edward A. Dennis: the disclosure of which is incorporated herein for reference.
Bovine Serum Albumin (fatty acid free) (1 g/L) (Sigma A-7030)
pH 7.5 (adjusted with NaOH)
pH 4.5 (adjusted with acetic acid)
1 mg of sPLA2 is dissolved in 1 ml of an enzyme buffer. Thereafter, the solution is maintained at 4° C.
In the assay, 5 μl of the solution is diluted with 1995 μl of the reaction buffer to be used.
198 mg of 5,5′-dithiobis-2-[…] (manufactured by Wako Pure Chemicals) is dissolved in 100 ml of H2O
100 mg of racemic 1,2-bis(heptanoylthio)-1,2-dideoxy-sn-glycero-3-phospholylcholine is dissolved in 1 ml of chloroform.
624.9 mg of Triton-X 100 is dissolved in 100 ml of the reaction buffer.
Enzyme Reaction: for 1 plate of Microtiterplate
1) 0.106 ml of the substrate solution is put in a centrifugal tube, and nitrogen gas is jetted to remove the solvent. 0.54 ml of Triton-X 100 is added thereto, the mixture is stirred, thereafter it is sonified in a bath type sonification to dissolve. To the resulting product are added 17.8 ml of the reaction buffer and 0.46 ml of DTNB, and 0.18 ml each of the admixture is poured to wells of the 96 well microtiterplate.
2) 10 μl of a test compound (or solvent blank) are added in accordance with alignment of plates which has been previously set.
3) Incubation is effected at 40° C. for 15 minutes.
4) 20 μl of an enzyme solution (sPLA2) which has been previously diluted (50 ng/well) are added to start reaction (40° C., 30 minutes).
5) Changes in absorbancy for 30 minutes are measured by a plate reader, and inhibition activity was calculated (OD: 405 nm).
6) IC50 was determined by plotting log concentration with respect to inhibition values within 10% to 90% inhibiting range.

NC(=O)C1=CCCc2c1c1c(OCC(=O)O)cccn1c2Cc1ccccc1 [Compound I-2]
IC50 [1]: 0.008 µM

NC(=O)C1CCCc2c1c1c(OCC(=O)O)cccn1c2Cc1ccccc1 (stereo not drawn) [Compound I-3]
IC50 [1]: 0.021 µM

CCOC(=O)CCCOc1ccn2c(Cc3ccccc3)c3c(c2c1)C(C(N)=O)=CCC3 [Compound I-4]
IC50 [1]: 0.175 µM

NC(=O)C1=CCCc2c1c1cc(OCCCC(=O)O)ccn1c2Cc1ccccc1 [Compound I-5]
IC50 [1]: 0.049 µM

COC(=O)COc1cccn2c(Cc3ccccc3)c3c(c12)C(C(N)=O)OCCC3 (stereo not drawn) [Compound I-6]
IC50 [1]: 7.5 µM | melting point: 182 to 183 °C

NC(=O)C1OCCCc2c1c1c(OCC(=O)O)cccn1c2Cc1ccccc1 (stereo not drawn) [Compound I-7]
IC50 [1]: 0.269 µM | melting point: 175 to 179 °C

COC(=O)COc1cccn2c(Cc3ccccc3)c3c(c12)C(C(N)=O)=NCC3 [Compound I-8]
IC50 [1]: 21.1 µM

NC(=O)C1=NCCc2c1c1c(OCC(=O)O)cccn1c2Cc1ccccc1 [Compound I-9]
IC50 [1]: 1.59 µM | melting point: 196 to 198 °C

NC(=O)c1nncc2c(Cc3ccccc3)n3cccc(OCC(=O)O)c3c12 [Compound I-10]
IC50 [1]: 39.9 µM

NC(=O)C1=NOCc2c1c1c(OCC(=O)O)cccn1c2Cc1ccccc1 [Compound I-11]
IC50 [1]: 0.031 µM

COC(=O)COc1cccn2c(Cc3ccc(-c4ccccc4)cc3)c3c(c12)C(C(N)=O)=CCC3 [Compound I-12]
IC50 [1]: 0.125 µM | melting point: 196 to 198 °C

NC(=O)C1=CCCc2c1c1c(OCC(=O)O)cccn1c2Cc1ccc(-c2ccccc2)cc1 [Compound I-13]
IC50 [1]: 0.01 µM | melting point: 224 to 227 °C

COC(=O)COc1cccn2c(Cc3ccccc3)c3c(c12)C(C(N)=O)OCC3 (stereo not drawn) [Compound I-14]
IC50 [1]: 0.725 µM | melting point: 218 to 220 °C

NC(=O)C1OCCc2c1c1c(OCC(=O)O)cccn1c2Cc1ccccc1 (stereo not drawn) [Compound I-15]
IC50 [1]: 0.035 µM | melting point: 242 to 243 °C (dec.)
